The subject of one data set is β-glucosidase. As to the kind of experiment: Action of β-glucosidase. The data set is classed as biochemical.
The next data set deals with β-galactosidase. The data set can be described thus: Action of β-galactosidase. The data set is classed as biochemical.
Data set [1] can be described thus: Acidity of aqueous solution. The data set is classed as physicochemical. From the text: (§1) The physicochemical properties of neotrehalose were studied with a high-purity crystalline neotrehalose specimen prepared by the method in Experiment 2-1.
The nature of the next data set: Heat of dissolution. The data set is classed as physicochemical. The note with it: crystal.
The nature of data set [2]: Hygroscopicity and deliquescence. The data set is classed as physicochemical. The note with it: crystal.
From the text: as §1

The nature of data set [3]: Solubility in water at 25° C. The note with it: crystal in the form of anhydride, in 100 g water at 25° C. Type of data set: physicochemical.
From the text: as §1

Data set [4] in a line: Digestion test: oral load test, blood sugar and insulin levels. Type of data set: in vivo. The note with it: healthy volunteers. The source says:
In accordance with the method described in H. Atsuji et al., Journal of Clinical Nutrition, Vol.41, Vol.2, pp.200-208 (1972), the load test by orally-administering to healthy volunteers a crystalline neotrehalose specimen prepared by the method in Experiment 2-1 was done, and their blood was sampled at prescribed time intervals and subjected to the measurements of the blood sugar and insulin levels. As control, glucose was used.

A further data set concerns trehalase. The data set can be described thus: Hydrolysis by trehalase. The data set is classed as biochemical.
From the text: as §1

The nature of a further data set: Solubility in solvents. Type of data set: physicochemical.
From the text: as §1

Another data set has as its system 7 week-old dd mice. As to the kind of experiment: Acute toxicity, oral, mice. Type of data set: in vivo.
The subject of another data set is α-glucosidase. As to the kind of experiment: Action of α-glucosidase. Type of data set: biochemical.
From the text: as §1

From the text for 7 week-old dd mice: A crystalline neotrehalose specimen, prepared by the method in Experiment 2-1, was orally administered to 7 week-old dd mice for acute toxicity test.
From the text for Heat of dissolution: The physicochemical properties of lactoneotrehalose were studied with a high-purity crystalline lactoneotrehalose specimen prepared by the method in Experiment 1-1.

In the case of `OC[C@H]1O[C@@H](O[C@H]2[C@H](O)[C@@H](O)[C@H](O[C@H]3O[C@H](CO)[C@@H](O)[C@H](O)[C@H]3O)O[C@@H]2CO)[C@H](O)[C@@H](O)[C@H]1O` [lactoneotrehalose, O-β-D-galactopyranosyl-(1→4)-O-β-D-glucopyranosyl α-D-glucopyranoside], the “products formed by the action of β-glucosidase” value with β-glucosidase was “D-glucose and lactose are formed”. Moreover, the “products formed by the action of β-galactosidase” value with β-galactosidase was “D-galactose and neotrehalose are formed”. For the same molecule, the “acidity of an aqueous solution of the crystal” value in data set [1] was “neutral or slight acidity”. This molecule also gave a Heat of dissolution in the data set “Heat of dissolution” of 20.0 cal/g. In addition, the hygroscopicity and deliquescence result in data set [2] was “Free of hygroscopicity and deliquescence”.

Turning to `OC[C@H]1O[C@@H](O[C@H]2O[C@H](CO)[C@@H](O)[C@H](O)[C@H]2O)[C@H](O)[C@@H](O)[C@@H]1O` [neotrehalose, O-α-D-glucopyranosyl β-D-glucopyranoside], the Solubility entry in data set [3] is recorded as “Fifty-five”. In addition, the “digestion, absorption, metabolism and utilization” value in data set [4] was “readily digested, absorbed, metabolized and utilized into energy”. The “time of maximum level of blood sugar after the administration” value in data set [4] fell in the range of 0.5 to 1 h. The “time of maximum level of insulin after the administration” value in data set [4] is 0.5 to 1 h. In addition, the “blood sugar and insulin behaviour compared with glucose” value in data set [4] (control glucose) is given as “behaved similarly as to glucose”. Besides, in the data set with trehalase, the hydrolysis by trehalase entry is “not hydrolyzed by trehalase”. In addition, the Solubility in solvents entry in “Solubility in solvents” (0.1N hydrochloric acid) is “Readily soluble”; in the data set “Solubility in solvents” (0.1N sodium hydroxide), “Readily soluble”; in the data set “Solubility in solvents” (chloroform), “insoluble”; in the data set “Solubility in solvents” (ethanol), “scarcely soluble”; in “Solubility in solvents” (ethyl acetate) it was “insoluble”; in the data set “Solubility in solvents” (methanol), “scarcely soluble”. Besides, the Solubility in solvents entry in the data set “Solubility in solvents” (water) is given as “Readily soluble”. Moreover, the “acidity of an aqueous solution of the crystal” value in data set [1] is listed as “neutral or slight acidity”. Moreover, the toxicity entry in the data set with 7 week-old dd mice was “extremely low”. In addition, the animal death entry in the data set on 7 week-old dd mice (up to 5 g of the specimen, higher dose was difficult to do) is given as “no animal death was noted”. The “product formed by the action of α-glucosidase” value with α-glucosidase is “D-glucose is formed”. Further, the hygroscopicity and deliquescence entry in data set [2] was “Free of hygroscopicity and deliquescence”.

The values above are taken from patent publication US5714476A, “Process for preparing compositions containing neotrehalose” (Kabushiki Kaisha Hayashibara Seibutsu Kagaku Kenkyujo, priority 1990, dated 1998).
